Data taken from US20070224273A1, “Multifunctional Supramolecular Hydrogels as Biomaterials” (priority 2004, published 2007).
One block for each compound: values may come before it. Peptide text beside a SMILES is read from it. * marks the point of attachment. Butanoyl(4-pyren-1-yl) = O=C(CCCc1ccc2ccc3cccc4ccc1c2c34)*; Acetyl(1-naphthyl) = O=C(Cc1cccc2ccccc12)*

Tests used:
[1] = Artificial enzyme (hemin) activity assay, oxidation of pyrogallol by H2O2; format: biochemical
Description: Activity assay: Using the oxidation of pyrogallol (10.0 mM) by H2O2 (40.0 mM) as a model reaction and fixing the total concentration of Hemin to 5 μM in the mixture, we examined the activity of Hemin by monitoring the absorbance (420 nm) of purpurogallin, the product of Hemin-catalyzed oxidation of pyrogallol. The catalytic reaction course of the artificial enzyme was measured by monitoring the increase in absorbance along with time change. The absorbance increase in the first minute was defined to be the initial rate. The Lineweaver-Burk plots constructed by the reaction initial rates at different pyrogallol concentrations were used to estimate their kinetic constant values. The other substrates, including o-phenyldiamine (product absorption at 450 nm) and o-aminophenol (product absorption at 430 nm), were employed under the same procedure of pyrogallol.
Using the oxidation of pyrogallol as a model reaction and fixing the total concentration of Hemin to be 5 μM in the mixture, we obtained the catalytic rate of Hemin by monitoring the changes of the absorbance of purpurogallin, the product of Hemin-catalyzed oxidation of pyrogallol. […] The Lineweaver-Burk plots constructed by the reaction initial rates at different pyrogallol concentrations gave the activity of the artificial enzyme. The kinetics of the catalysis of artificial enzyme follows Michaelis-Menten equation, which indicated successful design and generation of an artificial peroxidase by encapsulating hemin into hydrogel. […] Two factors likely contribute to the high activity of Hemin(Phe) in pH 7,4 buffer: (i) localization of hemin on the nanofibers preserves the catalytic species—monomeric hemin; (ii) the mesoporous structure in hydrogel facilitates the substrate across the hydrogel network to access the hemin in the hydrogel.

[2] = Hydrogelation in water (ability, concentration, pH); format: physicochemical
Description: Typically, after 2 mg of 1 was suspended in 1.0 mL of water, the increase of temperature to 80° C. gave a clear solution. Cooling the solution to room temperature led to a slightly opaque hydrogel (Gel I, FIG. 20A). Similar procedure afforded the hydrogel of 2 (Gel II, FIG. 20B).

[3] = Solubility in water of pentapeptide derivatives; format: physicochemical
Source text: Most of the compounds can gel water under appropriate pH. When the pH becomes higher than the listed value, the gel tends to become a clear solution, while a lower pH always leads to precipitation rather than homogeneous gel formation. GAGAS (SEQ ID No. 1), the epitope with the least bulk side chains, appears to be quite hydrophilic in water.
However, it is still not a good candidate as a hydrophilic tail in a hydrogelator. […] Hydrogel by Fmoc-GVGVP can be obtained by carefully adjusting the pH to 4.8, with the hydrogel not being thermal-reversible. […] Upon heating, it also melts. All three compounds, with VPGVG as the hydrophilic part, fail to gel water at the tested condition. They all show sharp solubility changes with pH and low melting points.

acid phosphatase = experiment: Visual hydrogelation assay for enzyme inhibitors (conversion of 9 to 10); format: biochemical; settings: pH=6.0, 37° C., solution-to-gel transition after 30 minutes
Source text: FIG. 6 illustrates the design of the visual assay. The precursor, which acts as the substrate of an enzyme, transforms into a hydrogelator when the enzyme catalyzes its conversion. Then, the self-assembly of the hydrogelators in water induces the formation of hydrogel. When inhibitors competitively bind with the active site of the enzyme and block the conversion of the precursor catalyzed by the enzyme, no hydrogel forms. Therefore, the macroscopic solution-to-gel transition (which can be observed visually) of the solution of the precursor reports the inactivation of the enzyme by the inhibitors.
This approach has a unique feature—it enlists water molecules as part of the reporting system. In addition, no spectrometer is required for observing the solution-to-gel phase transition. This simple and inexpensive method may be useful, not only for screening the inhibitors but also, for detecting the presence of enzymes when appropriate precursors are used. To verify the feasibility of the design shown in FIG. 6, a simple amino acid derivative (9), which can be converted into a hydrogelator (10) by dephosphorylation, was used to screen the inhibitors for an acid phosphatase.
Since the acid phosphatase catalyzes the conversion of 9 to 10 and leads to hydrogelation at a pH=6.0 and 37° C., the event of hydrogelation can indicate the activity of inhibitors for the acid phosphatase itself. Pamidronate disodium, Zn^2+, and sodium orthovanadate (Na3VO4) were chosen to estimate their minimum inhibition concentrations for the acid phosphatase. The three compounds were first mixed with the enzyme at a series of concentrations, respectively, followed by the addition of 9 to the solutions 10 minutes after mixing. After an additional 30 minutes of incubation, the solution-to-gel phase transition indicates the minimum inhibition concentration of the compounds. From the changes of rows 2, 3, and 4 in FIG. 7, the minimum inhibition concentrations of Pamidronate disodium, Zn^2+, and sodium orthovanadate (Na3VO4) for the acid phosphatase were determined to be 33 mM, 0.33 mM, and 3.3 mM, respectively.

[4] = system: C600 (β-lactamase negative E. coli control); experiment: Cell lysate added to solution of precursor 3, sample A; format: biochemical; settings: precursor 3 to form 1 after 6 hours
Description: (§1) To evaluate whether precursor 3 would respond to β-lactamases in bacteria, solution of precursor 3 was treated with sonicated lysates of E. coli.

[5] = molecular target: T1, TEM-1 (broad-spectrum β-lactamase) (Escherichia coli, UniProt P62593); format: biochemical, E. coli; settings: lysate TEM-1
T1 construct: endogenous in cells; host or cells: E. coli (sonicated lysate)
T1 sequence (P62593 24-286 limits assumed): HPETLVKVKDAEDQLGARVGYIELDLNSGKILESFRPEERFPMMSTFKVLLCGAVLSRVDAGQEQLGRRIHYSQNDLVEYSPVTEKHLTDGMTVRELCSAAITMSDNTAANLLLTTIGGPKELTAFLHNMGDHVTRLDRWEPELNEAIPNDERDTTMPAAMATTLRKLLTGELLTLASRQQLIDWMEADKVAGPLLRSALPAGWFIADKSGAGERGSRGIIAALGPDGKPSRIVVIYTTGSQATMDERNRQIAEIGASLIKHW
Description: as §1

[6] = molecular target: T2, CTX-M14 (extended-spectrum β-lactamase) (Escherichia coli, UniProt Q9L5C7); experiment: Cell lysate added to solution of precursor 3, sample C; format: biochemical, E. coli
T2 construct: endogenous in cells; host or cells: E. coli (sonicated lysate)
T2 sequence (Q9L5C7 entry or part of it): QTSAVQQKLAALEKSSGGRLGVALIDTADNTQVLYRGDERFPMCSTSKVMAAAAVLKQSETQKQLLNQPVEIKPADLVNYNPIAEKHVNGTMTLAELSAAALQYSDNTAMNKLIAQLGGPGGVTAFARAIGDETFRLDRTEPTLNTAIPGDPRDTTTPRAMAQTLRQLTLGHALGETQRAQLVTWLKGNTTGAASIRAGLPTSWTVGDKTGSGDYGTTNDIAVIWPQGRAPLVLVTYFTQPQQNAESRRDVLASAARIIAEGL
Description: as §1

[7] = system: CTX-M13 (extended-spectrum β-lactamase); experiment: Cell lysate added to solution of precursor 3, sample B; format: biochemical, E. coli
Description: as §1

[8] = molecular target: T3, SHV-1 (broad-spectrum β-lactamase) (Escherichia coli, UniProt P0AD63); experiment: Cell lysate added to solution of precursor 3, sample E; format: biochemical, E. coli; settings: lysate SHV-1
T3 construct: endogenous in cells; host or cells: E. coli (sonicated lysate)
T3 sequence (P0AD63 22-286): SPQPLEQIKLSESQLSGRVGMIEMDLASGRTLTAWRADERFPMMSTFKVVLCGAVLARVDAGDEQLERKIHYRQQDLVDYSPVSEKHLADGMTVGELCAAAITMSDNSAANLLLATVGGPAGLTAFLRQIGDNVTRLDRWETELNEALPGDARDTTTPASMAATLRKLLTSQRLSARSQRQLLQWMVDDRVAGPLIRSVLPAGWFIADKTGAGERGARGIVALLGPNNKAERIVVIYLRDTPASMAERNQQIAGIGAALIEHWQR
Description: as §1

[9] = system: JP995 (β-lactamase negative E. coli control); experiment: Cell lysate added to solution of precursor 3, sample D; format: biochemical; settings: precursor 3 to form 1 after 6 hours
Description: as §1

[10] = Solution of precursor 3, sample G (only water, no enzyme); format: biochemical; settings: precursor 3 to form 1 after 6 hours
Description: as §1

[11] = precursor 3 to form 1 after 6 hours

retention of catalytic ability during reaction ([1]; 15 minutes course, water buffer and toluene): lost most catalytic ability after 5 min
kcat in buffer ([1]; buffer (0.01 M, pH 7.4, phosphate)): 0.04 s⁻¹
kcat in toluene ([1]; toluene): 0.045 s⁻¹
Structure (SMILES): C=CC1=C(C)c2cc3[n-]c(cc4nc(cc5[n-]c(cc1n2)c(C)c5CCC(=O)O)C(CCC(=O)O)=C4C)c(C)c3C=C.[Cl-].[Fe+3] [Hemin(Free), hemin chloride]

ability to gel water / form hydrogel [2]: fail to form supramolecular hydrogels
Structure (SMILES): O=C(Cc1ccc2ccccc2c1)NC1C(O)OC(CO)C(O)C1O [Nap-D-Glucosamine]

ability to gel water / form hydrogel [2]: fail to form supramolecular hydrogels
Structure (SMILES): O=C(Cc1ccc2ccccc2c1)NC(Cc1ccccc1)C(=O)NC(Cc1ccccc1)C(=O)NC1C(O)OC(CO)C(O)C1O [Nap-L-Phe-L-Phe-D-Glucosamine]

Structure (SMILES): C[C@H](NC(=O)CNC(=O)Cc1cccc2ccccc12)C(=O)NCC(=O)N[C@@H](C)C(=O)N[C@@H](CO)C(=O)O [Naph-GAGAS] ({Acetyl(1-naphthyl)}-GAGAS-OH)
solubility in water [3]: soluble in water even under low pH and high concentration

Structure (SMILES): CC(C)[C@H](NC(=O)CNC(=O)Cc1cccc2ccccc12)C(=O)NCC(=O)N[C@H](C(=O)N1CCC[C@H]1C(=O)O)C(C)C [Naph-GVGVP] ({Acetyl(1-naphthyl)}-GVGVP-OH)
solubility in water [3]: either dissolves in water at a pH higher than 4 or becomes a suspension at a lower pH

minimum inhibition concentration (acid phosphatase): 33 mM
Structure (SMILES): NCCC(O)(P(=O)(O)O)P(=O)(O)O [Pamidronate disodium]

Structure (SMILES): NCC(=O)N[C@@H]1C(=O)N2C(C(=O)O)=C(CSCCNC(=O)[C@H](Cc3ccccc3)NC(=O)[C@H](Cc3ccccc3)NC(=O)Cc3ccc4ccccc4c3)CS[C@H]12 [Precursor 3]
Conversion (%) [4]: <0.5%
Conversion (%) ([4]; listed as precursor 3): < 0.5%
Gelation ([5]; precursor 3 0.35 wt %): + (Gels form in less than 2 hours)
Conversion (%) [5, 11]: 84.3%
Gelation ([6]; precursor 3 0.35 wt %): + (Gels form in less than 2 hours)
Conversion (%) [6, 11]: 99.5%
Gelation ([7]; precursor 3 0.35 wt %): + (Gels form in less than 2 hours)
Conversion (%) [7, 11]: 99.7%
Gelation ([8]; precursor 3 0.35 wt %): + (Gels form in less than 2 hours)
Conversion (%) [8, 11]: 65.2%
start of hydrogelation (dynamic time sweep) (β-lactamase; after addition of the β-lactamases): about 22 minutes
precursor 3 transformed into 1 (HPLC) (β-lactamase; one hour after addition of β-lactamase, room temperature): 49.0%
conversion of 3 to 1 (HPLC) (β-lactamase; β-lactamase and its inhibitor (clavulanic acid), after 12 hours): 3.4%
Conversion (%) [9]: 5.8%
Conversion (%) [10]: <0.5%
Conversion (%) ([10]; listed as precursor 3): < 0.5%

Structure (SMILES): CC(C)[C@H](NC(=O)CCCc1ccc2ccc3cccc4ccc1c2c34)C(=O)N[C@@H](Cc1ccc(O)cc1)C(=O)NCC(=O)NCC(=O)NCC(=O)O [Pyrene-VYGGG] ({Butanoyl(4-pyren-1-yl)}-VYGGG-OH)
solubility in water [3]: insoluble in water even under basic conditions

minimum inhibition concentration (acid phosphatase): 0.33 mM
Structure (SMILES): [Zn+2] [Zn^2+]

Structure (SMILES): O=C(O)[C@H]1/C(=C/CO)O[C@@H]2CC(=O)N21 [clavulanic acid, reference compound]
hydrogel formation with β-lactamase and inhibitor (β-lactamase; precursor 3 added to β-lactamase and inhibitor): failed to yield a hydrogel

Structure (SMILES): [Na+].[Na+].[Na+].[O]=[V]([O-])([O-])[O-] [sodium orthovanadate]
minimum inhibition concentration (acid phosphatase): 3.3 mM
